Data taken from paper PMC12027730, “Lapatinib-Resistant HER2+ Breast Cancer Cells Are Associated with Dysregulation of MAPK and p70S6K/PDCD4 Pathways and Calcium Management, Influence of Cryptotanshinone” (International Journal of Molecular Sciences, 2025).

Target: T1, eIF4AI (Homo sapiens, UniProt P60842)
T1 construct: gene EIF4A1
Experiment: synchronous fluorescence quenching, eIF4A […] with Cry […]
Format: binding

T1 sequence (P60842 2-406): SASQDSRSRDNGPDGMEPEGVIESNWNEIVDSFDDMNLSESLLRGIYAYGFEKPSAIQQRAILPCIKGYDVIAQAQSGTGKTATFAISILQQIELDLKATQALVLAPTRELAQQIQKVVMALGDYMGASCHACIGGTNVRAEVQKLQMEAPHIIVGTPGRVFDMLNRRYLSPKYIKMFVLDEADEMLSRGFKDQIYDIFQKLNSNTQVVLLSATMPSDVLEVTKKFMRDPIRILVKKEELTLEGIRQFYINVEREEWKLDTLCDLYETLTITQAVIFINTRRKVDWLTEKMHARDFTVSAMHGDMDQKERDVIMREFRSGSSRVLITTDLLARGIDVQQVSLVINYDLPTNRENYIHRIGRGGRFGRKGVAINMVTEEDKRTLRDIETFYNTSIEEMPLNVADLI

SMILES: C[C@H]1COC2=C1C(=O)C(=O)c1c2ccc2c1CCCC2(C)C [Cry, Cryptotanshinone]
- synchronous fluorescence quenching, eIF4A 12 μM with Cry 0-50 μM: A Cry dose-dependent fluorescence emission decrease in eIF4A associated with the induction of the quenching phenomena was observed
